Results on eight compounds are retold here after patent US11266636B2, “Maleate salt of the free base of N-[5-(aminosulfonyl)-4-methyl-1,3-thiazol-2-yl]-N-methyl-2-[4-(2-pyridinyl)-phenyl]-acetamide, pharmaceutical formulations, methods of manufacture and uses thereof for the treatment of herpes viruses” (priority 2016, dated 2022).

Usually solubility stands for how much of the substance goes into solution per volume.

Data set [1] in a line: Solubility in water and resulting pH. In kind it is physicochemical. As to conditions: for solubility at 22 h: water, thermodynamic from solid. The protocol:
Additionally, the solubility of the free base of pritelivir and its aforementioned salts in water was determined and the resulting pH was measured.
For detection, a diode-array detector was used. Absorption was recorded at a wavelength of 300 nm.

A short description of data set [2]: Short-term stability in pharmaceutical excipients over two weeks (ambient temperature and 50° C.). The conditions noted are these: for Stability in polyethylene glycol (in words): two weeks storage at 50° C. It counts as physicochemical. The protocol:
Additionally, the solubility of the free base of pritelivir and its aforementioned salts in water was determined and the resulting pH was measured. […] For detection, a diode-array detector was used. Absorption was recorded at a wavelength of 300 nm. All calculations were carried out with Microsoft Excel 2010. Mean data are given as arithmetic means. Recoveries were calculated in comparison to the measured start concentration (t0).

A short description of data set [3]: Solubility determination in different pharmaceutical excipients at ambient temperature. The conditions noted are these: for solubility at 22 h: thermodynamic from solid. The method, then: Dimethyl sulfoxide (DMSO) served as control solvent.
Suspensions were prepared by weighing the test items into glass vials and addition of the appropriate solvent. The suspensions were shortly vortex-mixed and shaken over-head for 22 hours. Aliquots (500 μL) were transferred to filtration devices with polyvinylidene fluoride membranes and the solid matter was separated by centrifugation. The filtrates were diluted (1:100) in acetonitrile/methanol/water/acetic acid (25+25+50+0.5, v+v+v+v).
Control solutions of all salts were prepared in DMSO at a concentration of 20 mg/mL and treated as described above. The solubility was determined by concentration measurement of the diluted filtrate of the oversaturated solutions.
Chromatographic separation was performed on a Phenomenex Luna C18(2), 5 μm column (150×2 mm) by gradient elution using 1% acetic acid and acetonitrile/methanol (1+1, v+v) containing 1% acetic acid. For detection, a diode-array detector was used. Absorption was recorded at a wavelength of 300 nm. A detailed method description was filed in the raw data folder.

The nature of data set [4]: Photostability (xenon lamp, ca. 2000 Wh/m^2, 29 hours, >310 nm), solids and acidic solutions. In kind it is physicochemical. The conditions noted are these: 0.1 M hydrochloric acid/acetonitrile (75+25). The protocol:
The compounds were exposed as solids and dissolved in 0.1 M hydrochloric acid/acetonitrile (75+25, v+v) at a target concentration of 0.3 mg/mL. Corresponding dark control samples were prepared and placed in UV-light protected vials in the irradiation chamber to keep the ambient conditions equivalent. Additionally, untreated solids were dissolved and analyzed as reference samples. Two samples were prepared from each solid test item. Approximately 20 mg of each test item (corrected for free base) was weighed into quartz glass vials. A second aliquot was weighed into light protected glass vials (dark control). Both samples were placed inside the irradiation chamber. […] Two aliquots were prepared (irradiated and dark control sample). The dark control samples were stored inside the irradiation chamber in closed and light protected glass vials, while the photostressed solutions were stored in quartz flasks, equipped only with a loose quartz glass cover. During irradiation, the samples were partially evaporated due to heat production inside the irradiation chamber. The extent of evaporation was variable from sample to sample (the sulphate salt of pritelivir free base was almost completely evaporated). […] The samples (solutions and solid state) were irradiated with a xenon lamp at […] through a glass filter for 29 hours (total applied dose of UV-light ca. 2000 Wh/m^2). The instrument used was a Suntest CPS+ (Atlas). By the use of the glass filter, only wavelengths >310 nm were irradiated, leading to simulation of the ID65 standard (indoor indirect daylight standard). […] The recorded average chamber heat temperature was 38° C. […] The % peak area was determined for the pritelivir free base in all tested samples. […] Absorption was recorded at a wavelength of 280 nm. […] The degree of decomposition was determined by chromatographic separation of (UV-active) degradation products and by determination of the respective percentage of the total peak area (% total peak area) per chromatogram. As salts dissociate in solution, the peak area of the pritelivir free base was determined in all samples.

The test system of data set [5] is herpes simplex virus-2. The conditions noted are these: comparison of literature values; cited from earlier work.
The nature of data set [6]: Relative solubility in simulated gastric and intestinal fluids (FaSSGF, FaSSIF, FeSSIF). In kind it is physicochemical. As to conditions: 2 hours; for Relative solubility in FaSSIF: fasted state simulated intestinal fluid, pH 6.5, 37° C.; for Relative solubility in FeSSIF: fed state simulated intestinal fluid, pH 5, 37° C. The protocol: The pH was adjusted to 6.5 by addition of 1 N hydrochloric acid.
The pH was adjusted to 5 by addition of 1 N hydrochloric acid.
Suspensions of the mono ethane sulfonate salt, the maleate salt, the mono benzene sulfonate salt, the hemi ethane-1,2-disulfonate, the mesylate salt or the pritelivir free base were prepared as triplicates by weighing approximately 12 mg test item and addition of 600 μL FaSSGF, FaSSIF or FeSSIF (final concentration 20 mg/mL). The suspensions were incubated at 37° C. Aliquots (100 μL) were transferred into centrifugation devices (polyvinylidene difluoride membrane, 0.2 μm) for removal of solid matter (10 minutes at approximately 15000×g and 37° C.) after 0, 0.5, 1 and 2 hours. FaSSGF filtrates were diluted in acetonitrile to a final dilution of 1:1000. FaSSIF filtrates were diluted in acetonitrile to a final dilution of 1:50 and FeSSIF filtrates to a final dilution of 1:100.
The samples were analyzed for their content of the free base of pritelivir. […] As hydrolysis products were not determined only relative solubility was used for further evaluations of the results.

The test system of data set [7] is HSV-2. The conditions noted are these: once daily suppressive therapy; cited from earlier work.
The mark [8] stands for this setting: 30% Captisol, aqueous with cosolvent or surfactant or cyclodextrin, Solubility in 30% Captisol, ambient temperature, 22 hours shaking.
[9] abbreviates: 30% hydroxypropyl-β-cyclodextrin (HP-beta CD), aqueous with cosolvent or surfactant or cyclodextrin, Solubility in 30% HP-beta CD, 30% Hydroxypropyl-β-cyclodextrin, ambient temperature.
The mark [10] stands for this setting: polyethylene glycol (PEG 400), organic solvent or mixture, Solubility in polyethylene glycol (PEG 400), PEG 400, ambient temperature.
[11] abbreviates: propylene glycol, organic solvent or mixture, Solubility in propylene glycol (PG), ambient temperature.

Converted amounts (≈) assume the structure as drawn.

Consider `Cc1nc(N(C)C(=O)Cc2ccc(-c3ccccn3)cc2)sc1S(N)(=O)=O` [free base of pritelivir, N-[5-(aminosulfonyl)-4-methyl-1,3-thiazol-2-yl]-N-methyl-2-[4-(2-pyridinyl)-phenyl]-acetamide], for which the solubility at 22 h in data set [1] was 1.3 µg/mL (≈ 0.00323 mM); in data set [3] (setting [8]), 1790 µg/mL (≈ 4.45 mM); in data set [3] (setting [9]), 1910 µg/mL (≈ 4.75 mM); in data set [3] (setting [10]), 89600 µg/mL (≈ 223 mM). The “Stability in ethanol, PEG and propylene glycol” value in data set [2] (two weeks, ambient temperature) was “slight decrease”.
For the compound `Cc1nc(N(C)C(=O)Cc2ccc(-c3ccccn3)cc2)sc1S(N)(=O)=O.O=S(=O)(O)O` [sulfate salt, N-methyl-N-(4-methyl-5-sulfamoylthiazol-2-yl)-2-(4-(pyridin-2-yl)phenyl)acetamide Sulfate], the figures for the solubility at 22 h in data set [1] and in data set [3] (organic solvent or mixture) were 175 to 606 µg/mL and 12500 µg/mL, respectively. For the same compound, in data set [2], the “Stability in polyethylene glycol (in words)” value is listed as “showed stability”. Further, the “% total peak area of the free base of pritelivir, dark control samples of the acidic solutions” value in data set [4] is given as 95.7%.
As for `C[C@H](Cn1cnc2c(N)ncnc21)OCP(=O)(O)O` [Tenofovir], in data set [5], the “IC50-values compared to the maleate salt” value is “significantly higher”.
Regarding `Cc1nc(N(C)C(=O)Cc2ccc(-c3ccccn3)cc2)sc1S(N)(=O)=O.O=C(O)/C=C\C(=O)O` [maleate salt, maleate salt of the free base of N-[5-(amino-sulfonyl)-4-methyl-1,3-thiazol-2-yl]-N-methyl-2-[4-(2-pyridinyl)phenyl]acetamide], the Solubility in water in data set [1] was 0.48 mg/mL. In data set [6], the “Relative solubility in FaSSIF” value is “essentially similar concentrations”. Moreover, in data set [6], the “Relative solubility in FeSSIF” value is reported as “essentially similar concentrations”. Moreover, the solubility at 22 h was 24500 µg/mL in data set [3] (setting [8]); 24100 µg/mL in data set [3] (setting [9]); 439 µg/mL in data set [3] (ethanol, organic solvent or mixture, Solubility in ethanol, ambient temperature); 32200 µg/mL in data set [3] (setting [10]); 5000 to 6000 µg/mL in data set [3] (setting [11]). Further, the “Solubility in propylene glycol (PG)” value in data set [3] (propylene glycol, ambient temperature, listed as Maleate Salt of Free Base Pritelivir) is reported as 5.23 mg/mL. Further, in data set [4] (29 hours, total dose 2000 Wh/m^2), the “% total peak area of the free base of pritelivir, irradiated solutions” value is 71.5%.
In the case of `CCS(=O)(=O)O.Cc1nc(N(C)C(=O)Cc2ccc(-c3ccccn3)cc2)sc1S(N)(=O)=O` [mono ethane sulfonate salt, N-methyl-N-(4-methyl-5-sulfamoylthiazol-2-yl)-2-(4-(pyridin-2-yl)phenyl)acetamide ethanesulfonate], the solubility at 22 h in data set [1] was 175 to 606 µg/mL; in data set [3] (setting [11]), 5000 to 6000 µg/mL. Besides, in data set [6] (fasted state simulated gastric fluid, pH 1.6, 37° C.), the “Relative solubility in FaSSGF” value is “highest relative solubility”. In data set [6], the “Relative solubility in FaSSIF” value is recorded as “highest relative solubility”. For the same compound, the “Relative solubility in FeSSIF” value in data set [6] is reported as “highest relative solubility”.
For `CC(C)[C@H](N)C(=O)OCCOCn1cnc2c(=O)[nH]c(N)nc21` [valacyclovir], the “Risk of transmission of genital herpes” value in data set [7] is “significantly reduces the risk of transmission”.
In the case of `Cc1nc(N(C)C(=O)Cc2ccc(-c3ccccn3)cc2)sc1S(N)(=O)=O.O=S(=O)(O)c1ccccc1` [mono benzene sulfonate salt, N-methyl-N-(4-methyl-5-sulfamoylthiazol-2-VI)-2-(4-(pyridin-2-yl)phenyl)acetamide benzenesulfonate], in data set [6], the “Relative solubility in FaSSIF” value is on record as “essentially similar concentrations” and the “Relative solubility in FeSSIF” value was “essentially similar concentrations”. Also, in data set [2], the “Stability in polyethylene glycol (in words)” value is recorded as “showed stability”.
Take “N-methyl-N-(4-methyl-5-sulfamoylthiazol-2-yl)-2-(4-(pyridin-2-yl)phenyl)acetamide hemiethane-1,2-disulphonate [hemi ethane-1,2-disulfonate salt]”: the “% total peak area of the free base of pritelivir, dark control samples of the acidic solutions” value in data set [4] was found to be 94.7%.
